Among the data in patent publication US20020028807A1, “Non-nucleoside reverse transcriptase inhibitors” (priority 2000, published 2002) are EC50 and IC50 values, retold here.

Assay [1] concerns HIV coding for wild-type reverse transcriptase (WT RT). The assay is described as follows: ELISA (p24) assay of HIV replication in C8166 cell culture, wild-type RT virus. The assay is classed as cell-based, HIV-1. The note with it: Human immunodeficiency virus 1, C8166, 72 h, read-out: EC50 WT RT. On the procedure: Compounds of the invention were tested for their ability to inhibit HIV replication in cell culture in a 96-well plate assay. Complete RPMI 1640, consisting of RPMI 1640+10% fetal bovine serum, 10 μg/ml gentamycin and 10 μM β-mercaptoethanol was used for dilution of the compound as well as cell growth medium. The T lymphocyte cell line C8166 was infected at a multiplicity of infection of 0.001 with viruses coding for wild-type and mutant reverse transcriptase. Cells were then incubated for three days in the presence of serial dilutions of the compounds of the invention. The supernatant was pooled from eight replica wells and the concentration of extracellular p24 was determined using a commercially available HIV-1 p24 antigen assay kit (Beckman-Coulter®). The level of inhibition (% inhibition) was calculated with the following equation: [formula]
For orientation: An ELISA detects its analyte on a solid surface through an enzyme-linked reagent.

Assay [2] deals with T1, HIV-1 RT wild-type (WT) (Human immunodeficiency virus type 1 group M subtype B, UniProt P03366).
T1 construct: an HIV RT clone pKRT2 containing only the RT p66 gene regulated by the lac operon/trc promoter; made in house; host or cells: E. coli JM109, vector pKK233-2
Put plainly: Reverse transcriptase (RT) assay, wild-type enzyme. The assay is classed as biochemical. From the text:
(§1) Among the enzymes for which Human Immunodeficiency Virus (HIV-1) encodes is a reverse transcriptase (1), so-named because it transcribes a DNA copy from an RNA template. This activity can be quantitatively measured in a cell-free enzyme assay and is based upon the observation that reverse transcriptase is able to use a synthetic template poly r(C) primed with a biotinylated oligo d(G) to transcribe a radio-labelled DNA strand utilising 3H-dGTP as a substrate. The assay described below utilises the wild-type enzyme (which is the predominant form of the enzyme observed in patients infected with HIV-1) and can also be used with mutant RT enzymes (for example, Y181C, prepared by site-directed mutagenesis in which the tyrosine residue at codon 181 has been replaced by a cysteine residue) in analogous assay conditions. This assay allows compounds to be evaluated for their effectiveness at inhibiting the mutant enzymes.
(§2) Some HIV-1 IIIB clone BH10 RT mutants were provided by Dr. C.-K. Shih (Boehringer Ingelheim Pharmaceutials Inc., U.S.A.) in the vector pKK233-2 (Pharmacia). Briefly an HIV RT clone pKRT2 containing only the RT p66 gene regulated by the lac operon/trc promoter was obtained from Dr. W. Summers (Yale University) (2). A variety of specific amino acid substitutions were introduced into the wild-type RT gene by site-directed mutagenesis. RT clones were subcloned into the pKK233-2 bacterial expression vector. Clones provided included wild-type, Val106Ala, Tyr181Cys, Tyr188Cys, Tyr188Leu, Gly190Ala and Pro236Leu. Others were made in-house by site-directed mutagenesis of the pKK233-2 RT clones including Lys103Asn, Lys103Asn/Tyr181Cys, Lys103Asn/Leu100Ile, Lys103Asn/Pro225His, and Lys103Asn/Val108Ile.
(§3) Purification of recombinant reverse transcriptase was performed using a combination of methods previously described (3). A single colony from a fresh plate of transformed JM109 cells was used to initiate growth of a pre-culture grown o/n at 37° C. Two liters of growth medium were inoculated with this pre-culture. At OD600˜1.5 (5-6 h at 37° C.), RT gene expression was induced with IPTG (1 mM final), and the fermentation was continued for a few more hours at 37° C. After centrifugation, supernatants were discarded while cell pellets were pooled and stored at −80° C. until purification. Cells were thawed at 4° C. overnight and suspended in lysis buffer (MES 50 mM pH 6, EDTA 1 mM, 10% v/v glyerol, 0.02% w/v OBG, 0.02% w/v sodium azide). Lysozyme was added and the mixture was incubated on ice for 40 minutes. After homogenization using a bounce in presence of lysozyme and sonication, the cells were centrifuged for 30 minutes. Supernatant (S1) was saved and stored at 4° C. The centrifuged pellet was resuspended in extraction buffer (MES 50 mM pH 6, KPO4 50 mM pH 6, KCl 100 mM, 10% v/v glycerol, 0.02% w/v OBG, 0.02% w/v sodium axide) and stirred for 30 minutes at 4° C. This second mixture was centrifuged again and the supernatant (S2) was saved. The above procedure was repeated 2 more times saving supernatants S3 and S4 and one last extraction was performed overnight (S5). Polymin P (0.005% final) was added to the combined supernatants to remove nucleic acids. This solution was stirred for 75 minutes at 4° C. and centrifuged for 1 h. The supernatant (SS1) was precipitated on ice with 20% w/v ammonium sulfate and stirred for 1 h at 4° C. The mixture was then centrifuged and the resulting supernatant (SS2) was precipitated with additional 40% w/v ammonium sulfate (60% total), stirred for 1 h and centrifuged again. The final pellet (P1) was stored overnight at 4° C. before undergoing purification the following day. All steps of the purification were performed at 4° C. unless otherwise stated.
(§4) Pellet (P1) was resuspended into MES 50 mM pH 6, KPO4 10 mM pH 6, KCl 100 mM, 10% v/v glycerol, 0.02% w/v OBG, 0.02% w/v sodium azide. The suspension was dialysis against the same buffer overnight using 12-14 kD MWCO dialysis tubing. […]

Assay [3] concerns the target T2, HIV-1 RT K103N/L100I (Human immunodeficiency virus type 1 group M subtype B, UniProt P03366, K702N/L699I).
T2 construct: an HIV RT clone pKRT2 containing only the RT p66 gene regulated by the lac operon/trc promoter; made in house; host or cells: E. coli JM109, vector pKK233-2
The assay is described as follows: Reverse transcriptase (RT) assay, K103N/L100I mutant. In kind it is biochemical.
Excerpt: as §1, §2, §3, §4

The target of assay [4] is T3, HIV-1 RT K103N/P225H (Human immunodeficiency virus type 1 group M subtype B, UniProt P03366, K702N/P824H).
T3 construct: an HIV RT clone pKRT2 containing only the RT p66 gene regulated by the lac operon/trc promoter; made in house; host or cells: E. coli JM109, vector pKK233-2
Put plainly: Reverse transcriptase (RT) assay, K103N/P225H mutant. The assay is classed as biochemical.
Excerpt: as §1, §2, §3, §4

For assay [5], the target named is T4, HIV-1 RT K103N (Human immunodeficiency virus type 1 group M subtype B, UniProt P03366, K702N).
T4 construct: an HIV RT clone pKRT2 containing only the RT p66 gene regulated by the lac operon/trc promoter; made in house; host or cells: E. coli JM109, vector pKK233-2
Put plainly: Reverse transcriptase (RT) assay, K103N mutant. In kind it is biochemical.
Excerpt: as §1, §2, §3, §4

Assay [6] concerns the target T5, HIV-1 RT Y181C (Human immunodeficiency virus type 1 group M subtype B, UniProt P03366, Y780C).
T5 construct: an HIV RT clone pKRT2 containing only the RT p66 gene regulated by the lac operon/trc promoter; made in house; host or cells: E. coli JM109, vector pKK233-2
Put plainly: Reverse transcriptase (RT) assay, Y181C mutant. In kind it is biochemical.
Excerpt: as §1, §2, §3, §4

Assay [7] deals with T6, HIV-1 RT V106A (Human immunodeficiency virus type 1 group M subtype B, UniProt P03366, V705A).
T6 construct: an HIV RT clone pKRT2 containing only the RT p66 gene regulated by the lac operon/trc promoter; made in house; host or cells: E. coli JM109, vector pKK233-2
The assay is described as follows: Reverse transcriptase (RT) assay, V106A mutant. The assay is classed as biochemical.
Excerpt: as §1, §2, §3, §4

The target of assay [8] is T7, HIV-1 RT Y188L (Human immunodeficiency virus type 1 group M subtype B, UniProt P03366, Y787L).
T7 construct: an HIV RT clone pKRT2 containing only the RT p66 gene regulated by the lac operon/trc promoter; made in house; host or cells: E. coli JM109, vector pKK233-2
The assay is described as follows: Reverse transcriptase (RT) assay, Y188L mutant. In kind it is biochemical.
Excerpt: as §1, §2, §3, §4

For assay [9], the target named is T8, HIV-1 RT K103N/Y181C (Human immunodeficiency virus type 1 group M subtype B, UniProt P03366, K702N/Y780C).
T8 construct: an HIV RT clone pKRT2 containing only the RT p66 gene regulated by the lac operon/trc promoter; made in house; host or cells: E. coli JM109, vector pKK233-2
Put plainly: Reverse transcriptase (RT) assay, K103N/Y181C mutant. The assay is classed as biochemical.
Excerpt: as §1, §2, §3, §4

Assay [10] has as its target T9, HIV-1 RT K103N/V108I (Human immunodeficiency virus type 1 group M subtype B, UniProt P03366, K702N/V707I).
T9 construct: an HIV RT clone pKRT2 containing only the RT p66 gene regulated by the lac operon/trc promoter; made in house; host or cells: E. coli JM109, vector pKK233-2
Put plainly: Reverse transcriptase (RT) assay, K103N/V108I mutant. The assay is classed as biochemical.
Excerpt: as §1, §2, §3, §4

The target of assay [11] is T10, HIV-1 RT G190A (Human immunodeficiency virus type 1 group M subtype B, UniProt P03366, G789A).
T10 construct: an HIV RT clone pKRT2 containing only the RT p66 gene regulated by the lac operon/trc promoter; made in house; host or cells: E. coli JM109, vector pKK233-2
Put plainly: Reverse transcriptase (RT) assay, G190A mutant. In kind it is biochemical.
Excerpt: as §1, §2, §3, §4

The target of assay [12] is T11, HIV-1 RT Y188C (Human immunodeficiency virus type 1 group M subtype B, UniProt P03366, Y787C).
T11 construct: an HIV RT clone pKRT2 containing only the RT p66 gene regulated by the lac operon/trc promoter; made in house; host or cells: E. coli JM109, vector pKK233-2
The assay is described as follows: Reverse transcriptase (RT) assay, Y188C mutant. In kind it is biochemical.
Excerpt: as §1, §2, §3, §4

What is called EC50 is the concentration needed to bring the measured effect to its halfway point. One may read the IC50 as the point on the concentration scale where inhibition reaches its midpoint. As to `CCN1c2ncc(CCOc3ccnc4ccccc34)cc2C(=O)Nc2c(C)cc(F)nc21` [compound 7, 5,11-Dihydro-11-ethyl-2-fluoro-4-methyl-8-{2-(4-quinolinyloxy)ethyl}-6H-dipyrido[3,2-b:2′,3′-e][1,4]diazepin-6-one], in [1], the EC50 came out at 1.1 nM. Also, the IC50 was found to be 9.8 nM in assay [2]; 98 nM in assay [3]; 46 nM in assay [4]; 26 nM in [5]; 38 nM in assay [6]; 74 nM in assay [7]. The IC50 in assay [8] came out at 4.32 µM; in assay [9], 199 nM; in assay [10] it was 45 nM.

Regarding `CCN1c2ncc(CCOc3ccnc4ccccc34)cc2C(=O)Nc2c(C)ccnc21` [compound 8, 5,11-Dihydro-11-ethyl-4-methyl-8-{2-(4-quinolinyloxy)ethyl}-6H-dipyrido[3,2-b:2′,3′-e][1,4]diazepin-6-one], in [1], the EC50 was 0.93 nM. For the same molecule, the IC50 in assay [2] turned out to be 10 nM; in assay [3], 135 nM; in [4] it was 67 nM; in assay [5] it was 37 nM; in [6] it was 43 nM; in [7] it was 190 nM. For the same molecule, the IC50 in assay [8] stood at 7.51 µM; in [9], 301 nM; in [10] it was 63 nM.

Turning to `CCN1c2ncc(CCOc3cc[n+]([O-])c4ccccc34)cc2C(=O)Nc2c(C)cc(Cl)nc21` [compound 14, 2-Chloro-5,11-dihydro-11-ethyl-4-methyl-8-{2-{(1-oxido-4-quinolinyl)-oxy}ethyl}-6H-dipyrido[3,2-b:2′,3′-e][1,4]diazepin-6-one], the EC50 in assay [1] was found to be 0.67 nM. For the same molecule, the IC50 in [2] stood at 15 nM; in assay [3] it was 24 nM; in assay [4] it was 30 nM; in assay [5], 19 nM; in assay [6], 28 nM; in assay [7] it was 77 nM. Besides, the IC50 amounted to 2.3 µM in assay [8], 61 nM in [9] and 59 nM in assay [10].

For `CCN1c2ncc(CCOc3ccnc4ccccc34)cc2C(=O)N(C)c2cccnc21` [compound 24, 5,11-Dihydro-11-ethyl-5-methyl-8-{2-(4-quinolinyloxy)ethyl}-6H-dipyrido[3,2-b:2′,3′-e][1,4]diazepin-6-one], the IC50 is 5.6 nM in [2]; 169 nM in assay [3]; 344 nM in assay [7]; 0.627 µM in assay [8]; 25 nM in assay [11]; 70 nM in assay [9].

Consider `CCN1c2ncc(CCOc3cccc4ncccc34)cc2C(=O)Nc2c(C)cc(Cl)nc21` [compound 25, 2-Chloro-5,11-dihydro-11-ethyl-4-methyl-8-{2-(5-quinolinyloxy)ethyl}-6H-dipyrido[3,2-b:2′,3′-e][1,4]diazepin-6-one], for which the EC50 in assay [1] stood at 2.2 nM. The 50% inhibitory concentration (IC50) in assay [2] was 8 nM; in assay [3] it was 28 nM; in [4] it was 23 nM; in [5], 19 nM; in assay [6], 17 nM; in assay [7] it was 84 nM. For the same molecule, the IC50 in [8] turned out to be 2.54 µM; in assay [9], 64 nM; in assay [10], 38 nM.

With `CCN1C(=O)c2cc(CCOc3ccnc4ccccc34)cnc2N(CC)c2ncccc21` [compound 26, 5,11-Dihydro-5,11-diethyl-8-{2-(4-quinolinyloxy)ethyl}-6H-dipyrido[3,2-b:2′,3′-e][1,4]diazepin-6-one], the EC50 in assay [1] amounted to 2.2 nM. Also, the IC50 in [2] was determined as 8.9 nM; in assay [4], 85 nM; in assay [5], 40 nM; in [6], 51 nM; in [7] it was 1750 nM; in assay [8] it was 5.2 µM. Besides, the IC50 in assay [9] turned out to be 200 nM; in [12] it was 147 nM; in assay [10], 443 nM.
